The values that follow are results of earlier work, collected in patent US7267830B2, “Composition and methods for inhibiting the progression macular degeneration and promoting healthy vision” (Alcon, Inc., priority 2003, dated 2007).

In data set [1] the test system is macular degeneration changes. The conditions noted are these: zinc supplement, Newsome 1988.

Like-named read-outs stand apart in the source and are kept apart here.

Consider `[Zn]` [Zinc], for which, in data set [1], the “retarding macular degeneration changes versus placebo” value is reported as “significantly better than placebo”. In addition, the tolerability entry reads like this: (100 mg zinc a day (Wagner 1985)) “well tolerated without difficulty”; (150 mg of zinc a day (Wagner 1985)) “well tolerated without difficulty”; (about 200 mg of zinc per day) “well-tolerated”. Besides, the potential side effects entry (about 200 mg of zinc per day (Fischer 1983)) is on record as “blocking copper absorption”.
